Experimental data published in patent US20110136666A1, “CHEMICAL COMPOUNDS” (SYNGENTA CROP PROTECTION, INC., priority 2008, published 2011).

Key:
[1] = test system: Ipomea hederaceae (IPOHE); experiment: Post-emergence biological efficacy, glasshouse pot test; assay type: in vivo; conditions: Ipomoea hederacea, 312 h, 1000 g/ha, after 13 days, 100=total damage, 0=no damage, read-out: Percentage damage caused to weed species IPONE
Procedure, shortened: (§1)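 Species sown in soil and grown 8 days in glasshouse (24/16 °C day/night, 14 h light, 65% humidity), then sprayed with compound in acetone/water (50:50) with 0.5% Tween 20 at 250 or 1000 g/ha. Damage scored visually after 13 days (0 = none, 100 = total).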

[2] = test system: Echinochloa crus-galli (ECHCG); experiment: as above; assay type: in vivo; conditions: 312 h, 1000 g/ha, after 13 days, 100=total damage, 0=no damage, read-out: Percentage damage caused to weed species ECHCG
Procedure, shortened: as §1

Setaria faberi (SETFA) [3] = experiment: as above; assay type: in vivo; conditions: 312 h, 1000 g/ha, after 13 days, 100=total damage, 0=no damage, read-out: Percentage damage caused to weed species SETFA
Procedure, shortened: as §1

[4] = test system: Alopecurus myosuroides (ALOMY); experiment: as above; assay type: in vivo; conditions: 312 h, 1000 g/ha, after 13 days, 100=total damage, 0=no damage, read-out: Percentage damage caused to weed species ALOMY
Procedure, shortened: as §1

[5] = test system: Amaranthus retroflexus (AMARE); experiment: as above; assay type: in vivo; conditions: 312 h, 1000 g/ha, after 13 days, 100=total damage, 0=no damage, read-out: Percentage damage caused to weed species AMARE
Procedure, shortened: as §1

Solanum nigrum (SOLNI) [6] = experiment: as above; assay type: in vivo; conditions: 312 h, 1000 g/ha, after 13 days, 100=total damage, 0=no damage, read-out: Percentage damage caused to weed species SOLNI
Procedure, shortened: as §1

[7] = test system: Ipomea hederaceae (IPOHE); experiment: Pre-emergence biological efficacy, glasshouse pot test; assay type: in vivo; conditions: Ipomoea hederacea, 312 h, 1000 g/ha, after 13 days, 100=total damage, 0=no damage, read-out: Percentage damage caused to weed species IPOHE
Procedure, shortened: (§2)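 Pots sown with weed seeds, sprayed 1 day after sowing with test compound in acetone/water (50:50) plus 0.5% Tween 20 at 250 or 1000 g/ha. Plants grown in glasshouse at 24/16° C day/night, 14 h light, 65% humidity, watered twice daily. Damage scored visually after 13 days (0 = none, 100 = total).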

[8] = test system: Echinochloa crus-galli (ECHCG); experiment: as above; assay type: in vivo; conditions: 312 h, 1000 g/ha, after 13 days, 100=total damage, 0=no damage, read-out: Percentage damage caused to weed species ECHCG
Procedure, shortened: as §2

Setaria faberi (SETFA) [9] = experiment: as above; assay type: in vivo; conditions: 312 h, 1000 g/ha, after 13 days, 100=total damage, 0=no damage, read-out: Percentage damage caused to weed species SETFA
Procedure, shortened: as §2

[10] = test system: Alopecurus myosuroides (ALOMY); experiment: as above; assay type: in vivo; conditions: 312 h, 1000 g/ha, after 13 days, 100=total damage, 0=no damage, read-out: Percentage damage caused to weed species ALOMY
Procedure, shortened: as §2

[11] = test system: Amaranthus retroflexus (AMARE); experiment: as above; assay type: in vivo; conditions: 312 h, 1000 g/ha, after 13 days, 100=total damage, 0=no damage, read-out: Percentage damage caused to weed species AMARE
Procedure, shortened: as §2

Solanum nigrum (SOLNI) [12] = experiment: as above; assay type: in vivo; conditions: 312 h, 1000 g/ha, after 13 days, 100=total damage, 0=no damage, read-out: Percentage damage caused to weed species SOLNI
Procedure, shortened: as §2

Row | melting point | Compound | pest or weed control at 1000 g/ha [1] | pest or weed control at 1000 g/ha [2] | pest or weed control at 1000 g/ha (Setaria faberi (SETFA) [3]) | pest or weed control at 1000 g/ha [4] | pest or weed control at 1000 g/ha [5] | pest or weed control at 1000 g/ha (Solanum nigrum (SOLNI) [6]) | pest or weed control at 1000 g/ha [7] | pest or weed control at 1000 g/ha [8] | pest or weed control at 1000 g/ha (Setaria faberi (SETFA) [9]) | pest or weed control at 1000 g/ha [10] | pest or weed control at 1000 g/ha [11] | pest or weed control at 1000 g/ha (Solanum nigrum (SOLNI) [12])
1 | 183 °C (dec.) | Nc1nc(-c2ccccn2)nc(C(=O)O)c1Cl [Compound 1-149, 4-amino-5-chloro-2-pyridin-2-ylpyrimidine-6-carboxylic acid] | 0% | 0% | 0% | 0% | 0% | 0% | 0% | 0% | 0% | 0% | 0% | 0%
2 | 185 to 186 °C | COC(=O)c1nc(-c2cnn(C)c2)nc(N)c1Cl [Compound 2-71, 4-amino-5-chloro-6-methoxycarbonyl-2-(1-methyl-1H-pyrazol-4-yl)-pyrimidine] | 30% | 0% | 0% | 0% | 0% | 0% | 0% | 0% | 0% | 0% | 0% | 0%
3 | 210 to 213 °C | COC(=O)c1nc(-c2ccc(C#N)nc2)nc(N)c1Cl [Compound 2-158, 4-amino-5-chloro-2-(2-cyanopyridin-5-yl)-6-methoxycarbonylpyrimidine] | 20% | 0% | 0% | 0% | 0% | 20% | 0% | 0% | 0% | 0% | 0% | 0%
4 | – | COC(=O)c1nc(-c2cnc(OC)nc2)nc(N)c1Cl [Compound 2-182, 4-Amino-5-chloro-6-methoxycarbonyl-2-(2-methoxypyrimidin-5-yl)-pyrimidine] | 30% | 0% | 10% | 0% | 20% | 70% | 0% | 0% | 0% | 0% | 0% | 40%
5 | – | COC(=O)c1nc(-c2cncc3ccccc23)nc(N)c1Cl [Compound 2-196, 4-Amino-5-chloro-2-isoquinolin-4-yl-6-methoxycarbonyl pyrimidine] | 0% | 0% | 0% | 0% | 0% | 0% | 0% | 0% | 0% | 0% | 0% | 0%
6 | – | CCOC(=O)c1nc(-c2ccc(Cl)s2)nc(N)c1Cl [Compound 3-2, 4-amino-5-chloro-2-(5-chlorothiophen-2-yl)-6-ethoxycarbonyl-pyrimidine] | 50% | 0% | 0% | 0% | 80% | 70% | 0% | 0% | 0% | 0% | 30% | 0%
7 | 176 to 180 °C (dec.) | CCOC(=O)c1nc(-c2ccccn2)nc(N)c1Cl [Compound 3-149, 4-amino-5-chloro-6-ethoxycarbonyl-2-pyridin-2-ylpyrimidine] | 0% | 0% | 0% | 0% | 0% | 0% | 0% | 0% | 0% | 0% | 0% | 0%
8 | – | CCOC(=O)c1nc(-c2ccc(C(F)(F)F)cn2)nc(N)c1Cl [Compound 3-150, 4-amino-5-chloro-6-ethoxycarbonyl-2-(5-trifluoromethylpyridin-2-yl)-pyrimidine] | 0% | 0% | 0% | 0% | 0% | 0% | 0% | 0% | 0% | 0% | 0% | 0%
9 | – | O=C(O)c1nc(-c2ccccn2)nc(Cl)c1Cl [Compound 61-149, 4,5-dichloro-2-pyridin-2-ylpyrimidine-6-carboxylic acid] | 0% | 0% | 0% | 0% | 0% | 40% | 0% | 0% | 0% | 0% | 0% | 0%
10 | 194 to 195 °C | C=Cc1c(N)nc(-c2ccc(Cl)nc2)nc1C(=O)OC [Compound 68-156, 4-amino-2-(6-chloropyridin-3-yl)-5-ethenyl-6-methoxycarbonyl-pyrimidine] | 50% | 0% | 0% | 0% | 100% | 90% | 40% | 0% | 10% | 10% | 100% | 40%
